# Measured values from patent US8563257B2, “Sensitive and rapid methods of using chimeric receptors to identify autoimmune disease and assess disease severity” (Diagnostic Hybrids, Inc., priority 2000, dated 2013).
# “And” between values parts separate entries of the source, which are not always exact repeats. Equal entries are not always repeated. “Also recorded” adds a separate entry of the source.
# Assays:
# CHO-RMc4luc cells [1] = test: Alternate glucocorticoids vs. dexamethasone in the non-starved CHO-RMc4 assay; assay type: cell-based, Chinese hamster; details: for signal intensity (RLU) compared to 40 μM dexamethasone: FIG. 17
# Experimental: The data was collected in accordance with the protocol outlined in Example 17. The data was calculated as the difference (Δ) in RLU values or SRR % values for each glucocorticoid (GC) concentration by subtracting the RLU value or SRR % value for the Normal control at that concentration from the RLU value or SRR % value for the Positive control at that concentration, respectively.
# Four GCs were examined in this study: i) Prednisone (Sigma); ii) Hydrocortisone (Sigma); iii) Fluticasone Propionate (Sigma); and iv) Cortisone (Sigma). A stock concentration (100 mM) of each GC was made in DMSO. 1:10 (10 mM) and 1:100 (1 mM) dilutions, in DMSO, were then made from the 100 mM stock. All DMSO/GC stocks were clear with no visible precipitate.
# Growth Media containing different concentrations of each GC were made as follows: i) 100 μM GC Medium: 5 μL of 100 mM GC Stock+5 mL SR097 (w/o Dex); ii) 50 μM GC Medium: 2.5 μL of 100 mM GC Stock+5 mL SR097 (w/o Dex); iii) 10 μM GC Medium: 5 μL of 10 mM GC Stock+5 mL SR097 (w/o Dex); iii) 1 μM GC Medium: 5 μL of 1 mM GC Stock+5 mL SR097 (w/o Dex); and iv) 0.1 μM GC Medium: 0.5 μL of 1 mM GC Stock+5 mL SR097 (w/o Dex). […] Additional controls included Growth Medium containing 1 μl/ml dimethylsulfoxide (DMSO) as a solvent control and Growth Medium without any glucocorticoids.
# Each assay was performed by using two (2) microwell plates for each glucocorticoid tested. The sample layouts for each plate are identified below: […]
# CHO-RMc4luc cells [2] = test: Effect of dexamethasone on starved CHO-RMc4luc cells (luciferase); assay type: cell-based, Chinese hamster; details: for % of S/B, Patient #18 Serum: 0 uM = 100; for RLU, Patient #18 Serum, Average / S/B, Patient #18 Serum / RLU, Patient #18 Serum, Test 1-3 / RLU, Reference Serum, Avg / RLU, Reference Serum, Test 1-3: starved cells; for RLU, Patient #18 Serum, Test 1-3 / RLU, Reference Serum, Test 1-3: listed as DEX
# Experimental: CHO-Rluc (041307A) and CHO-RMc4luc (062707, P8, 3e6/ml) cells were each brought up in 5 ml CHO growth media.
# The cells were then rinsed with reaction buffer and serum (diluted 1:11) was added to 100 μl of reaction buffer already in the well. Serums used were: i) reference 121506R; ii) PC 121506P; and iii) patient #18 TSI serum.
# After 4 hours of induction the plates were lysed with 75 ul of Bright Glo®, lysed for 5 minutes, and then read on a Veritas luminometer.
# [3] = glucocorticoid 0.1 μM in Growth Medium
# [4] = glucocorticoid 1 μM in Growth Medium
# [5] = glucocorticoid 10 μM in Growth Medium
# [6] = glucocorticoid 50 μM in Growth Medium
# [7] = glucocorticoid 100 μM in Growth Medium
# [8] = 40 μM in Growth Medium (control)
structure (smiles),measurement,setting,value
C[C@]12CCC(=O)C=C1CC[C@@H]1[C@@H]2C(=O)C[C@@]2(C)[C@H]1CC[C@]2(O)C(=O)CO [Cortisone],signal intensity (RLU) compared to 40 μM dexamethasone,CHO-RMc4luc cells [1],equivalent to dexamethasone; also recorded: equal signal intensities
same,Δ (positive - normal) RLU,CHO-RMc4luc cells [1]; [3],10494 RLU
same,Δ (positive - normal) SRR % s,CHO-RMc4luc cells [1]; [3],169%
same,Δ (positive - normal) RLU,CHO-RMc4luc cells [1]; [4],9474 RLU
same,Δ (positive - normal) SRR % s,CHO-RMc4luc cells [1]; [4],151%
same,Δ (positive - normal) RLU,CHO-RMc4luc cells [1]; [5],9847 RLU
same,Δ (positive - normal) SRR % s,CHO-RMc4luc cells [1]; [5],151%
same,Δ (positive - normal) RLU,CHO-RMc4luc cells [1]; [6],8738 RLU
same,Δ (positive - normal) SRR % s,CHO-RMc4luc cells [1]; [6],162%
same,Δ (positive - normal) RLU,CHO-RMc4luc cells [1]; [7],8106 RLU
same,Δ (positive - normal) SRR % s,CHO-RMc4luc cells [1]; [7],176%
"C[C@@H]1C[C@H]2[C@@H]3CCC4=CC(=O)C=C[C@]4(C)[C@@]3(F)[C@@H](O)C[C@]2(C)[C@@]1(O)C(=O)CO [Dexamethasone, dexamethasone]","% of S/B, Patient #18 Serum",CHO-RMc4luc cells [2]; DEX 12.5 uM,180%
same,"RLU, Patient #18 Serum, Average",CHO-RMc4luc cells [2]; DEX 12.5 uM,5165 RLU
same,"S/B, Patient #18 Serum",CHO-RMc4luc cells [2]; DEX 12.5 uM,39.8
same,"RLU, Patient #18 Serum, Test 1-3",CHO-RMc4luc cells [2]; DEX 12.5 uM,4710 RLU and 5456 RLU and 5330 RLU
same,"% of S/B, Patient #18 Serum",CHO-RMc4luc cells [2]; DEX 25 uM,183%
same,"RLU, Patient #18 Serum, Average",CHO-RMc4luc cells [2]; DEX 25 uM,5194 RLU
same,"RLU, Reference Serum, Avg",CHO-RMc4luc cells [2]; DEX 25 uM,127 RLU
same,"S/B, Patient #18 Serum",CHO-RMc4luc cells [2]; DEX 25 uM,40.6
same,"RLU, Patient #18 Serum, Test 1-3",CHO-RMc4luc cells [2]; DEX 25 uM,5172 RLU and 5151 RLU and 5260 RLU
same,"RLU, Reference Serum, Test 1-3",CHO-RMc4luc cells [2]; DEX 25 uM,129 RLU and 132 RLU
same,"% of S/B, Patient #18 Serum",CHO-RMc4luc cells [2]; DEX 40 uM,182%
same,"RLU, Patient #18 Serum, Average",CHO-RMc4luc cells [2]; DEX 40 uM,5092 RLU
same,"RLU, Reference Serum, Avg",CHO-RMc4luc cells [2]; DEX 40 uM,126 RLU
same,"S/B, Patient #18 Serum",CHO-RMc4luc cells [2]; DEX 40 uM,40.4
same,"RLU, Patient #18 Serum, Test 1-3",CHO-RMc4luc cells [2]; DEX 40 uM,5039 RLU and 5198 RLU and 5038 RLU
same,"RLU, Reference Serum, Test 1-3",CHO-RMc4luc cells [2]; DEX 40 uM,128 RLU
same,"% of S/B, Patient #18 Serum",CHO-RMc4luc cells [2]; DEX 50 uM,181%
same,"RLU, Patient #18 Serum, Average",CHO-RMc4luc cells [2]; DEX 50 uM,5023 RLU
same,"RLU, Reference Serum, Avg",CHO-RMc4luc cells [2]; DEX 50 uM,125 RLU
same,"S/B, Patient #18 Serum",CHO-RMc4luc cells [2]; DEX 50 uM,40.1
same,"RLU, Patient #18 Serum, Test 1-3",CHO-RMc4luc cells [2]; DEX 50 uM,4861 RLU and 5298 RLU and 4909 RLU
same,"RLU, Reference Serum, Test 1-3",CHO-RMc4luc cells [2]; DEX 50 uM,135 RLU
same,"% of S/B, Patient #18 Serum",CHO-RMc4luc cells [2]; DEX 100 uM,140%
same,"RLU, Patient #18 Serum, Average",CHO-RMc4luc cells [2]; DEX 100 uM,3492 RLU
same,"RLU, Reference Serum, Avg",CHO-RMc4luc cells [2]; DEX 100 uM,112 RLU
same,"S/B, Patient #18 Serum",CHO-RMc4luc cells [2]; DEX 100 uM,31.1
same,"RLU, Patient #18 Serum, Test 1-3",CHO-RMc4luc cells [2]; DEX 100 uM,3542 RLU and 3414 RLU and 3521 RLU
same,"RLU, Reference Serum, Avg",CHO-RMc4luc cells [2]; DEX 12. uM,129 RLU
same,"RLU, Reference Serum, Test 1-3",CHO-RMc4luc cells [2]; DEX 12. uM,129 RLU and 141 RLU
same,Δ (positive - normal) RLU,CHO-RMc4luc cells [1]; [8],9375 RLU
same,Δ (positive - normal) SRR % s,CHO-RMc4luc cells [1]; [8],282%
"CCC(=O)O[C@]1(C(=O)SCF)[C@H](C)C[C@H]2[C@@H]3C[C@H](F)C4=CC(=O)C=C[C@]4(C)[C@@]3(F)[C@@H](O)C[C@@]21C [Fluticasone Proprionate, Fluticasone Propionate]",signal intensity (RLU) compared to 40 μM dexamethasone,CHO-RMc4luc cells [1],equal signal intensities
same,Δ (positive - normal) RLU,CHO-RMc4luc cells [1]; [3],9768 RLU
same,Δ (positive - normal) SRR % s,CHO-RMc4luc cells [1]; [3],161%
same,Δ (positive - normal) RLU,CHO-RMc4luc cells [1]; [4],8806 RLU
same,Δ (positive - normal) SRR % s,CHO-RMc4luc cells [1]; [4],148%
same,Δ (positive - normal) RLU,CHO-RMc4luc cells [1]; [5],8774 RLU
same,Δ (positive - normal) SRR % s,CHO-RMc4luc cells [1]; [5],168%
same,Δ (positive - normal) RLU,CHO-RMc4luc cells [1]; [6],6996 RLU
same,Δ (positive - normal) SRR % s,CHO-RMc4luc cells [1]; [6],137%
same,Δ (positive - normal) RLU,CHO-RMc4luc cells [1]; [7],6366 RLU
same,Δ (positive - normal) SRR % s,CHO-RMc4luc cells [1]; [7],155%
C[C@]12CCC(=O)C=C1CC[C@@H]1[C@@H]2[C@@H](O)C[C@@]2(C)[C@H]1CC[C@]2(O)C(=O)CO [Hydrocortisone],signal intensity (RLU) compared to 40 μM dexamethasone,CHO-RMc4luc cells [1],equivalent to dexamethasone; also recorded: equal signal intensities
same,Δ (positive - normal) RLU,CHO-RMc4luc cells [1]; [3],9889 RLU
same,Δ (positive - normal) SRR % s,CHO-RMc4luc cells [1]; [3],158%
same,Δ (positive - normal) RLU,CHO-RMc4luc cells [1]; [4],9149 RLU
same,Δ (positive - normal) SRR % s,CHO-RMc4luc cells [1]; [4],155%
same,Δ (positive - normal) RLU,CHO-RMc4luc cells [1]; [5],9757 RLU
same,Δ (positive - normal) SRR % s,CHO-RMc4luc cells [1]; [5],153%
same,Δ (positive - normal) RLU,CHO-RMc4luc cells [1]; [6],8950 RLU
same,Δ (positive - normal) SRR % s,CHO-RMc4luc cells [1]; [6],178%
same,Δ (positive - normal) RLU,CHO-RMc4luc cells [1]; [7],8348 RLU
same,Δ (positive - normal) SRR % s,CHO-RMc4luc cells [1]; [7],180%
C[C@]12C=CC(=O)C=C1CC[C@@H]1[C@@H]2C(=O)C[C@@]2(C)[C@H]1CC[C@]2(O)C(=O)CO [Prednisone],signal intensity (RLU) compared to 40 μM dexamethasone,CHO-RMc4luc cells [1],equal signal intensities
same,Δ (positive - normal) RLU,CHO-RMc4luc cells [1]; [3],8717 RLU
same,Δ (positive - normal) SRR % s,CHO-RMc4luc cells [1]; [3],150%
same,Δ (positive - normal) RLU,CHO-RMc4luc cells [1]; [4],8219 RLU
same,Δ (positive - normal) SRR % s,CHO-RMc4luc cells [1]; [4],133%
same,Δ (positive - normal) RLU,CHO-RMc4luc cells [1]; [5],8429 RLU
same,Δ (positive - normal) SRR % s,CHO-RMc4luc cells [1]; [5],142%
same,Δ (positive - normal) RLU,CHO-RMc4luc cells [1]; [6],8107 RLU
same,Δ (positive - normal) SRR % s,CHO-RMc4luc cells [1]; [6],165%
